In general, CC50 refers to the concentration that lowers cell viability or growth by half. Read a high CC50 as better tolerance by the cells. In general, inhibition refers to the drop in the measured response relative to a control, in per cent. What is called % inhibition is the percentage by which the read-out fell short of the control. A low value points to a response near the control.

Bounds are passed on as bounds.

One data set is described as follows: in vitro. Put shortly:
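Cytoprotection read-out: CellTiter-Glo chemiluminescence after 5 days at 37 °C of HIV-IIIb-infected MT-4 cells (m.o.i. 0.003) with compound in 10-point 3-fold dilutions, quadruplicate, 10% FBS. Cytotoxicity (CC50) measured identically without virus.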

Another data set relates to HIV-IIIb. The experiment in a line: Test A: Antiviral assay in MT4 cells. The data set is classed as cell-based, HIV-1. The following applies: MT-4 cells infected with HIV-IIIb, 5 days, CellTiter-Glo; for inhibition at 2 µM: Human immunodeficiency virus 1, IIIB, MT4, 120 h, read-out: % inhibition at 2 μM, percent inhibition of virus-induced cell killing, from dose response curve at 2 uM drug. (In general: Cellular ATP, detected with luciferase, serves as a proxy for viable cell number.)

Where [1] appears, read: human, uninfected MT-4 cells, CC50 (nM), same protocol as Test A, CellTiter-Glo.
The mark [2] stands for this setting: human, CC50 (nM), uninfected MT-4 cells, same protocol as Test A, CellTiter-Glo.

In the case of `CC(C)c1cc(C(=O)NC2CC2)n(CC(=O)N[C@@H](Cc2cc(F)cc(F)c2)c2ncccc2-c2ccc(F)c(C(N)=O)c2)n1` [Example 520, (S)-1-(2-(1-(3-(3-carbamoyl-4-fluorophenyl)pyridin-2-yl)-2-(3,5-difluorophenyl)ethylamino)-2-oxoethyl)-N-cyclopropyl-3-isopropyl-1H-pyrazole-5-carboxamide], in “in vitro” (setting [1]), the 50% cytotoxic concentration (CC50) at 5 days was > 53200 nM. The inhibition at 2 µM in the data set with HIV-IIIb came to 30%.
The matching figures for `CC(C)c1cc(C(=O)O)nn1CC(=O)N[C@@H](Cc1cc(F)cc(F)c1)c1ncccc1-c1ccc(F)c(C(N)=O)c1` [Example 521]: > 53200 nM and 0%.
For `Cc1cc2c(ccn2CC(=O)N[C@@H](Cc2cc(F)cc(F)c2)c2ncccc2-c2ccc(F)c(C(N)=O)c2)cn1` [Example 522, (S)-5-(2-(2-(3,5-difluorophenyl)-1-(2-(6-methyl-1H-pyrrolo[3,2-c]pyridin-1-yl)acetamido)ethyl)pyridin-3-yl)-2-fluorobenzamide] the same measures were 47900 nM and 4%.
The matching figures for `CNC(=O)c1nc2c(C)cccc2n1CC(=O)N[C@@H](Cc1cc(F)cc(F)c1)c1ncccc1-c1ccc(F)c(C(N)=O)c1` [Example 523, (S)-1-(2-(1-(3-(3-carbamoyl-4-fluorophenyl)pyridin-2-yl)-2-(3,5-difluorophenyl)ethylamino)-2-oxoethyl)-N,4-dimethyl-1H-benzo[d]imidazole-2-carboxamide]: 48800 nM and 24%.
As to `O=C(Cn1nc(C(F)F)c2c1C(F)(F)CCC2(F)F)N[C@@H](Cc1cc(F)cc(F)c1)c1ncncc1-c1ccc(Cl)cc1` [Example 524D, (S)—N-(1-(5-(4-chlorophenyl)pyrimidin-4-yl)-2-(3,5-difluorophenyl)ethyl)-2-(3-(difluoromethyl)-4,4,7,7-tetrafluoro-4,5,6,7-tetrahydro-1H-indazol-1-yl)acetamide], the CC50 at 5 days in “in vitro” (setting [1]) is 8530 nM. The inhibition at 2 µM in the data set on HIV-IIIb stood at 78%.
In the case of `NC(=O)c1cc(-c2cccnc2[C@H](Cc2cc(F)cc(F)c2)NC(=O)Cn2nc(C(F)(F)F)c3c2CCC3O)ccc1F` (stereo partly drawn) [Example 525, 5-(2-((1S)-2-(3,5-difluorophenyl)-1-(2-(4-hydroxy-3-(trifluoromethyl)-5,6-dihydrocyclopenta[c]pyrazol-1(4H)-yl)acetamido)ethyl)pyridin-3-yl)-2-fluorobenzamide], in the data set “in vitro” (setting [1]), the CC50 at 5 days was > 53200 nM. The inhibition at 2 µM in the data set on HIV-IIIb was determined as 83%.
The matching figures for `CC(C)(C)OC(=O)NCc1ccc2c(CC(=O)N[C@@H](Cc3cc(F)cc(F)c3)c3ncccc3-c3ccc(Cl)cc3)c[nH]c2c1` [Example 526, (S)-tert-butyl (3-(2-(1-(3-(4-chlorophenyl)pyridin-2-yl)-2-(3,5-difluorophenyl)ethylamino)-2-oxoethyl)-1H-indol-6-yl)methylcarbamate]: 10000 nM and 50%.
The matching figures for `NC(=O)c1cccc(-c2cccnc2[C@H](Cc2cc(F)cc(F)c2)NC(=O)Cc2c[nH]c3cc(C(F)(F)F)ccc23)c1` [Example 527E, (S)-3-(2-(2-(3,5-difluorophenyl)-1-(2-(6-(trifluoromethyl)-1H-indol-3-yl)acetamido)ethyl)pyridin-3-yl)benzamide]: 10600 nM and 66%.
For `O=C(Cn1nc(C(F)F)cc1C(F)F)N[C@@H](Cc1cc(F)cc(F)c1)c1ccccn1` [Example 528, (S)-2-(3,5-bis(difluoromethyl)-1H-pyrazol-1-yl)-N-(2-(3,5-difluorophenyl)-1-(pyridin-2-yl)ethyl)acetamide] the same measures were > 53200 nM and 0%.
`CC(C)(C)OC(=O)NCc1ccc2[nH]cc(CC(=O)N[C@@H](Cc3cc(F)cc(F)c3)c3ncccc3-c3cccc(C(N)=O)c3)c2c1` [Example 529, (S)-tert-butyl (3-(2-(1-(3-(3-carbamoylphenyl)pyridin-2-yl)-2-(3,5-difluorophenyl)ethylamino)-2-oxoethyl)-1H-indol-5-yl)methylcarbamate] returned a CC50 at 5 days in “in vitro” (setting [1]) of 13000 nM. Besides, in the data set with HIV-IIIb, the inhibition at 2 µM is 53%.
For `NC(=O)c1cc(-c2cccnc2[C@H](Cc2cc(F)cc(F)c2)NC(=O)Cc2c[nH]c3c(F)cc(F)cc23)ccc1F` [Example 530E, (S)-5-(2-(1-(2-(5,7-difluoro-1H-indol-3-yl)acetamido)-2-(3,5-difluorophenyl)ethyl)pyridin-3-yl)-2-fluorobenzamide] the same measures were 15300 nM and 55%.
The matching figures for `NC(=O)c1cc(-c2cccnc2[C@H](Cc2cc(F)cc(F)c2)NC(=O)Cc2c[nH]c3cc(F)c(F)cc23)ccc1F` [Example 533E, (S)-5-(2-(1-(2-(5,6-difluoro-1H-indol-3-yl)acetamido)-2-(3,5-difluorophenyl)ethyl)pyridin-3-yl)-2-fluorobenzamide]: 19300 nM and 142%.
The matching figures for `Cc1cccc2[nH]cc(CC(=O)N[C@@H](Cc3cc(F)cc(F)c3)c3ncccc3-c3ccc(Cl)cc3)c12` [Example 534, (S)—N-(1-(3-(4-chlorophenyl)pyridin-2-yl)-2-(3,5-difluorophenyl)ethyl)-2-(4-methyl-1H-indol-3-yl)acetamide]: 9820 nM and 29%.
With `NC(=O)c1cc(-c2cccnc2[C@H](Cc2cc(F)cc(F)c2)NC(=O)Cn2nc(C(F)(F)F)c3c2CCC3(F)F)ccc1F` [Example 535G, (S)-5-(2-(1-(2-(4,4-difluoro-3-(trifluoromethyl)-5,6-dihydrocyclopenta[c]pyrazol-1(4H)-yl)acetamido)-2-(3,5-difluorophenyl)ethyl)pyridin-3-yl)-2-fluorobenzamide], the 50% cytotoxic concentration (CC50) at 5 days in the data set “in vitro” (setting [1]) came out at 25300 nM. Also, the inhibition at 2 µM with HIV-IIIb is 9%.
Regarding `Cc1cc2[nH]cc(CC(=O)N[C@@H](Cc3cc(F)cc(F)c3)c3ncccc3-c3cccc(C(N)=O)c3)c2cc1OCc1ccccc1` [Example 536I, (S)-3-(2-(1-(2-(5-(benzyloxy)-6-methyl-1H-indol-3-yl)acetamido)-2-(3,5-difluorophenyl)ethyl)pyridin-3-yl)benzamide], in the data set “in vitro” (setting [1]), the midpoint of cytotoxicity, the CC50 at 5 days, lay at 8600 nM. For the same compound, the inhibition at 2 µM in the data set with HIV-IIIb worked out at 12%.
For `CC(C)c1nccn1CC(=O)N[C@@H](Cc1cc(F)cc(F)c1)c1ncccc1-c1ccc(F)c(C(N)=O)c1` [Example 537, (S)-5-(2-(2-(3,5-difluorophenyl)-1-(2-(2-isopropyl-1H-imidazol-1-yl)acetamido)ethyl)pyridin-3-yl)-2-fluorobenzamide], the CC50 at 5 days in the data set “in vitro” (setting [1]) is > 53200 nM. In addition, the inhibition at 2 µM in the data set with HIV-IIIb came to 2%.
For `CC(C)c1cc(C(C)C)n(CC(=O)N[C@@H](Cc2cc(F)cc(F)c2)c2ncccc2-c2ccc(F)c(C(N)=O)c2)n1` [Example 538, (S)-5-(2-(2-(3,5-difluorophenyl)-1-(2-(3,5-diisopropyl-1H-pyrazol-1-yl)acetamido)ethyl)pyridin-3-yl)-2-fluorobenzamide] the same measures were 23300 nM and 14%.
The matching figures for `O=C(Cn1nc(C(F)F)cc1C(F)F)N[C@@H](Cc1cc(F)cc(F)c1)c1ncccc1-c1ccc(S(=O)(=O)N2CCOCC2)cc1` [Example 539, (S)-2-(3,5-bis(difluoromethyl)-1H-pyrazol-1-yl)-N-(2-(3,5-difluorophenyl)-1-(3-(4-(morpholinosulfonyl)phenyl)pyridin-2-yl)ethyl)acetamide]: 20800 nM and 10%.
In turn, `CC(=O)c1cn(CC(=O)N[C@@H](Cc2cc(F)cc(F)c2)c2ncccc2-c2ccc(Cl)cc2)c2ccccc12` [Example 541, (S)-2-(3-acetyl-1H-indol-1-yl)-N-(1-(3-(4-chlorophenyl)pyridin-2-yl)-2-(3,5-difluorophenyl)ethyl)acetamide] registered a CC50 at 5 days in the data set “in vitro” (setting [2]) of 8150 nM. Besides, in the data set with HIV-IIIb, the inhibition at 2 µM amounted to 37%.
The compound `NC(=O)c1cc(-c2cccnc2[C@H](Cc2cc(F)cc(F)c2)NC(=O)Cn2nc(C(F)(F)F)cc2C(F)(F)F)ccc1F` [Example 542, (S)-5-(2-(1-(2-(3,5-bis(trifluoromethyl)-1H-pyrazol-1-yl)acetamido)-2-(3,5-difluorophenyl)ethyl)pyridin-3-yl)-2-fluorobenzamide] showed a half-maximal cytotoxic concentration (CC50) at 5 days in “in vitro” (setting [1]) of 33600 nM. Further, the inhibition at 2 µM in the data set on HIV-IIIb was found to be 1%.
In turn, `CCC(C(=O)N[C@@H](Cc1cc(F)cc(F)c1)c1ncccc1-c1ccc(F)c(C(N)=O)c1)n1cc(C(C)=O)c2ccccc21` (stereo partly drawn) [Example 543, 5-(2-((1S)-1-(2-(3-acetyl-1H-indol-1-yl)butanamido)-2-(3,5-difluorophenyl)ethyl)pyridin-3-yl)-2-fluorobenzamide] registered a CC50 at 5 days in the data set “in vitro” (setting [2]) of 44000 nM. For the same compound, the “% inhibition at 2 μM” value with HIV-IIIb (percent inhibition of virus-induced cell killing, from dose response curve at 2 uM drug) is listed as 4%.
In the data set “in vitro” (setting [1]), `Cc1ccc2ccn(CC(=O)N[C@@H](Cc3cc(F)cc(F)c3)c3ncccc3-c3ccc(F)c(C(N)=O)c3)c2c1` [Example 545, (S)-5-(2-(2-(3,5-difluorophenyl)-1-(2-(6-methyl-1H-indol-1-yl)acetamido)ethyl)pyridin-3-yl)-2-fluorobenzamide] returned a cytotoxic concentration (CC50) at 5 days of 15900 nM. The inhibition at 2 µM with HIV-IIIb turned out to be 37%.
The matching figures for `NC(=O)c1cccc(-c2cccnc2[C@H](Cc2cc(F)cc(F)c2)NC(=O)Cn2ccc3c(F)cc(F)cc32)c1` [Example 546C, (S)-3-(2-(1-(2-(4,6-difluoro-1H-indol-1-yl)acetamido)-2-(3,5-difluorophenyl)ethyl)pyridin-3-yl)benzamide]: 16800 nM and 15%.

Values taken from US9540343B2 (Gilead Sciences, Inc., priority 2011, dated 2017).
